Data from patent publication US20260263485A1, “AMINOSTEROL COMPOUNDS, AMINOSTEROL-CYCLODEXTRIN FORMULATIONS, AND METHODS OF USING THE SAME” (Enterin, Inc., priority 2022, published 2026).
“And” between values parts separate entries of the source, which are not always exact repeats. Equal entries are not always repeated. Where two headings read alike, the source gives them in different places.

Legend:
[1] = Identification of metabolites of ENT-03S in rat plasma and urine samples (UPLC-MS/MS); format: in vivo
Procedure: An equal number of rat urine (50 μL) were taken from different animals at various time points following administration of ENT-03S. For plasma samples, the Hamilton pooling method was used.
Study design: An equal number of rat urine (50 μL) samples were taken from different animals at various time points from study No.: PH-DMPK-ETR-21-001 following administration of ENT-03S. For plasma samples, the Hamilton pooling method was used.
The samples were then analysed using UPLC-MS/MS.
Compound dependent parameters were optimized by ENT-03S.

[2] = Plasma pharmacokinetics of ENT-03S cyclodextrin formulation after subcutaneous injection; format: in vivo, rat; conditions: 20% beta-cyclodextrin formulation, male SD rats
Procedure: In this example, ENT-03S was formulated with unmodified beta-cyclodextrin at a concentration of 25 mg/ml ENT-03, and 20% beta-cyclodextrin, pH 7.5, buffered with phosphate.
Male Sprague-Dawley rats were administered the ENT-03-cyclodextrin formulation subcutaneous at a dose of 10 mg/kg. Blood samples were drawn from the tail vein at various times, the concentrations of ENT-03 determined, and PK parameters determined.

[3] = SC Dose 10 mg/kg, plasma, individual rats, 10 mg/kg

Which “Metabolite peak area percentages Rat Plasma Male” value ([1]; pooled male SD rat plasma 0.25-24 h after 10 mg/kg ENT-03S SC, relative XIC peak area) does the source give for `C[C@H](CCC[C@H](C)C(=O)O)[C@H]1CCC2C3C(CC[C@@]21C)[C@@]1(C)CC[C@H](NCCCNCCCCNCCCN)C[C@@H]1C[C@H]3O` (stereo partly drawn) [ENT-03S, (2S,6R)-6-((3S,5R,7R,10S,13R,17R)-3-((3-((4-((3-aminopropyl)amino)butyl)amino)propyl)amino)-7-hydroxy-10,13-dimethylhexadecahydro-1 H-cyclopenta[a]phenanthren-17-yl)-2-methylheptanoic acid] here?
Its value is 91.29%.

What about the “Metabolite peak area Rat Plasma Male” value ([1]; pooled male SD rat plasma after 10 mg/kg ENT-03S SC, XIC peak area) of the same molecule?
The value was 6.03E+08.

And the “Metabolite peak area percentages Rat Urine Male” value ([1]; pooled male SD rat urine 0-24 h after 10 mg/kg ENT-03S SC, relative XIC peak area, “—”: not observed)?
Its value is 71.94%.

And the “Metabolite peak area Rat Urine Male” value ([1]; pooled male SD rat urine after 10 mg/kg ENT-03S SC, XIC peak area, “—”: not observed)?
Its value is 1.62E+06.

What about the “Concentration (ng/ml) Rat 1-3” value ([2]; 10 mg/kg SC, 0.25 h, individual rats, 10 mg/kg) of the same molecule?
Its value is 22000 ng/mL and 20800 ng/mL.

What about the “Concentration (ng/ml) Rat 1-3” value ([2]; 10 mg/kg SC, 0.5 h, individual rats, 10 mg/kg) of the same molecule?
Its value is 27100 ng/mL and 30200 ng/mL.

And the “Concentration (ng/ml) Rat 1-3” value ([2]; 10 mg/kg SC, 1 h, individual rats, 10 mg/kg)?
The value was 31700 ng/mL and 33000 ng/mL.

And the “Concentration (ng/ml) Rat 1-3” value ([2]; 10 mg/kg SC, 2 h, individual rats, 10 mg/kg)?
Its value is 32700 ng/mL and 33300 ng/mL.

And the “Concentration (ng/ml) Rat 1-3” value ([2]; 10 mg/kg SC, 4 h, individual rats, 10 mg/kg)?
Its value is 29600 ng/mL and 25400 ng/mL.

And the “Concentration (ng/ml) Rat 1-3” value ([2]; 10 mg/kg SC, 8 h, individual rats, 10 mg/kg)?
Its value is 25000 ng/mL and 23000 ng/mL.

What about the “Concentration (ng/ml) Rat 1-3” value ([2]; 10 mg/kg SC, 24 h, individual rats, 10 mg/kg) of the same molecule?
Its value is 14100 ng/mL and 12600 ng/mL.

And the “Concentration (ng/ml) Rat 1-3” value ([2]; 10 mg/kg SC, 48 h, individual rats, 10 mg/kg)?
Its value is 7700 ng/mL and 5620 ng/mL.

And the “Concentration (ng/ml) Rat 1-3” value ([2]; 10 mg/kg SC, 72 h, individual rats, 10 mg/kg)?
The value was 1850 ng/mL and 4200 ng/mL and 2440 ng/mL.

And the “AUC_% Extrap_obs” value [2, 3]?
Its value is 6.74% and 15.0% and 8.08%.

And the AUClast [2, 3]?
Its AUClast is 944.488 µg·h/mL and 811.185 µg·h/mL.

And the AUClast/D [2, 3]?
The AUClast/D was 71600 kg·ng·h/mL/mg and 94400 kg·ng·h/mL/mg and 81100 kg·ng·h/mL/mg.

What about the AUClnf [2, 3] of the same molecule?
Its AUClnf is 1110.949 µg·h/mL and 882.526 µg·h/mL.

And the Cmax [2, 3]?
Its Cmax is 32.7 µg/mL and 33.3 µg/mL.

What about the MRTlnf_obs [2, 3] of the same molecule?
Its MRTlnf_obs is 24.3 h and 36.3 h and 27.2 h.

What about the T1/2 [2, 3] of the same molecule?
The T1/2 was 27.5 h and 20.3 h.

What about the “AUC_% Extrap_obs Mean” value ([2]; SC Dose 10 mg/kg, plasma, mean) of the same molecule?
The value was 9.9%.

And the AUClast/D Mean ([2]; SC Dose 10 mg/kg, plasma, mean)?
The AUClast/D Mean was 82400 kg·ng·h/mL/mg.

And the “MRTlnf_obs Mean” value ([2]; SC Dose 10 mg/kg, plasma, mean)?
Its value is 29.3 h.

What about the Tmax ([2]; Sprague-Dawley, rat, SC Dose 10 mg/kg, plasma, individual rats, read-out: Tmax) of the same molecule?
The Tmax was 2 h.

What about the concentration at 0.25 h ([2]; male, Sprague-Dawley, rat, plasma, sc, 10 mg/kg, 10 mg/kg SC, 0.25 h, individual rats, read-out: Concentration (ng/ml) Rat 1-3) of the same molecule?
The concentration at 0.25 h was 23100 ng/mL.

And the concentration at 0.25 h ([2]; male, Sprague-Dawley, rat, plasma, sc, 10 mg/kg, 10 mg/kg SC, 0.25 h, mean, read-out: Concentration Mean)?
Its concentration at 0.25 h is 22000 ng/mL.

What about the concentration at 0.5 h ([2]; male, Sprague-Dawley, rat, plasma, sc, 10 mg/kg, 10 mg/kg SC, 0.5 h, individual rats, read-out: Concentration (ng/ml) Rat 1-3) of the same molecule?
The concentration at 0.5 h was 25700 ng/mL.

What about the concentration at 0.5 h ([2]; male, Sprague-Dawley, rat, plasma, sc, 10 mg/kg, 10 mg/kg SC, 0.5 h, mean, read-out: Concentration Mean) of the same molecule?
Its concentration at 0.5 h is 27700 ng/mL.

And the concentration at 1 h ([2]; male, Sprague-Dawley, rat, plasma, sc, 10 mg/kg, 10 mg/kg SC, 1 h, individual rats, read-out: Concentration (ng/ml) Rat 1-3)?
Its concentration at 1 h is 30700 ng/mL.

And the concentration at 1 h ([2]; male, Sprague-Dawley, rat, plasma, sc, 10 mg/kg, 10 mg/kg SC, 1 h, mean, read-out: Concentration Mean)?
The concentration at 1 h was 31800 ng/mL.

And the concentration at 2 h ([2]; male, Sprague-Dawley, rat, plasma, sc, 10 mg/kg, 10 mg/kg SC, 2 h, individual rats, read-out: Concentration (ng/ml) Rat 1-3)?
Its concentration at 2 h is 31300 ng/mL.

What about the concentration at 2 h ([2]; male, Sprague-Dawley, rat, plasma, sc, 10 mg/kg, 10 mg/kg SC, 2 h, mean, read-out: Concentration Mean) of the same molecule?
Its concentration at 2 h is 32400 ng/mL.

And the concentration at 4 h ([2]; male, Sprague-Dawley, rat, plasma, sc, 10 mg/kg, 10 mg/kg SC, 4 h, individual rats, read-out: Concentration (ng/ml) Rat 1-3)?
The concentration at 4 h was 25700 ng/mL.

What about the concentration at 4 h ([2]; male, Sprague-Dawley, rat, plasma, sc, 10 mg/kg, 10 mg/kg SC, 4 h, mean, read-out: Concentration Mean) of the same molecule?
The concentration at 4 h was 26900 ng/mL.

What about the concentration at 8 h ([2]; male, Sprague-Dawley, rat, plasma, sc, 10 mg/kg, 10 mg/kg SC, 8 h, individual rats, read-out: Concentration (ng/ml) Rat 1-3) of the same molecule?
The concentration at 8 h was 22700 ng/mL.

What about the concentration at 8 h ([2]; male, Sprague-Dawley, rat, plasma, sc, 10 mg/kg, 10 mg/kg SC, 8 h, mean, read-out: Concentration Mean) of the same molecule?
The concentration at 8 h was 23600 ng/mL.

What about the concentration at 24 h ([2]; male, Sprague-Dawley, rat, plasma, sc, 10 mg/kg, 10 mg/kg SC, 24 h, individual rats, read-out: Concentration (ng/ml) Rat 1-3) of the same molecule?
The concentration at 24 h was 10300 ng/mL.

And the concentration at 24 h ([2]; male, Sprague-Dawley, rat, plasma, sc, 10 mg/kg, 10 mg/kg SC, 24 h, mean, read-out: Concentration Mean)?
The concentration at 24 h was 12300 ng/mL.

What about the concentration at 48 h ([2]; male, Sprague-Dawley, rat, plasma, sc, 10 mg/kg, 10 mg/kg SC, 48 h, individual rats, read-out: Concentration (ng/ml) Rat 1-3) of the same molecule?
Its concentration at 48 h is 4080 ng/mL.

And the concentration at 48 h ([2]; male, Sprague-Dawley, rat, plasma, sc, 10 mg/kg, 10 mg/kg SC, 48 h, mean, read-out: Concentration Mean)?
The concentration at 48 h was 5770 ng/mL.

And the concentration at 72 h ([2]; male, Sprague-Dawley, rat, plasma, sc, 10 mg/kg, 10 mg/kg SC, 72 h, mean)?
The concentration at 72 h was 2.83 µg/mL.
